pEC50, pIC50: −log10 of the molar value.

The target of one test is PD-1/PD-L1 interaction (Homo sapiens (Human), UniProt Q9NZQ7). The test can be described thus: PD-1/PD-L1 NFAT Reporter Assay (Jurkat T cells / PD-L1 expressing CHO cells co-culture). Format: cell-based. The note with it: for pEC50: co-culture 6 hrs at 37° C., luciferase; for Emax: Jurkat, maximum NFAT-activation level relative to the positive control (10 nM Atezolizumab). On the procedure:
Blocking the PD-1/PD-L1 interaction will release the inhibitory signal and results in TCR signaling and NFAT-mediated luciferase activity.
CHO cells expressing surface-bound anti-CD3 antibodies and PD-L1 were first seeded overnight and treated with the compounds. Jurkat cells overexpressing PD-1 and a luciferase construct under NF-AT promoter were then immediately seeded on the monolayer of CHO cells. The co-culture was then incubated for 6 hrs at 37° C. Luciferase activity was assessed by adding the ONE-Glo reagent and measuring luminescence with a plate reader. EC50s values were determined from the fit of the dose-response curves Emax (%) corresponds to the maximum NFAT-activation level reached by a given compound relative to the positive control (10 nM Atezolizumab).

The next test addresses PDL1/PD1 (Homo sapiens (Human), UniProt Q9NZQ7). The test can be described thus: PDL1/PD1 Binding Assay. The note with it: PDL1-6xHis 0.3 nM, PD1-Fc-Avi-Biotin 2.5 nM, Acceptor/Donor beads; read-out: PD-1/PD-L1 PPI IC50. On the procedure:
Compounds to be tested were serially diluted in DMSO, and further diluted in assay buffer (25 mM Hepes pH 7.4, 150 mM NaCl, 0.005% Tween 20, BSA 0.01%). Diluted compounds were added to the wells with final concentration of DMSO at 1%. PDL1-6×His protein was added to the wells, mixed well with compound. The plates were incubated for 30 min at room temperature. PD1-Fc-Avi-Biotin protein was added to the wells. Final concentration of PDL1 and PD1 protein is 0.3 nM and 2.5 nM, respectively. After a binding time of 30 min at room temperature, Anti-6×His Acceptor beads (final concentration 20 ug/ml) were added to the wells, and the incubation continued for 1 h. Streptavidin Donor beads (final concentration 20 ug/mL) were added at reduced light. The plates were sealed with foil and incubated in the dark for additional 1 h or overnight before reading on an Envision reader. The IC50 values were determined by fitting the curves using a four-parameter equation in Graphpad Prism 8.

PD-1/PD-L1 interaction, sequence (Q9NZQ7 19-290): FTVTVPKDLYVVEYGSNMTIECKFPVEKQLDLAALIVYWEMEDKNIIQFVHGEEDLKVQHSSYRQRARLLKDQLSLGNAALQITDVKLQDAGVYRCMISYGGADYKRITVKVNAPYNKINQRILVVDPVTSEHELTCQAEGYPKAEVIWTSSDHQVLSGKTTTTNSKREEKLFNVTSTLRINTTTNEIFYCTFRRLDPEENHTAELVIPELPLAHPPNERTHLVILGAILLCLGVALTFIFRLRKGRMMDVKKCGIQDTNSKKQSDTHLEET
PDL1/PD1, sequence (Q9NZQ7 19-238): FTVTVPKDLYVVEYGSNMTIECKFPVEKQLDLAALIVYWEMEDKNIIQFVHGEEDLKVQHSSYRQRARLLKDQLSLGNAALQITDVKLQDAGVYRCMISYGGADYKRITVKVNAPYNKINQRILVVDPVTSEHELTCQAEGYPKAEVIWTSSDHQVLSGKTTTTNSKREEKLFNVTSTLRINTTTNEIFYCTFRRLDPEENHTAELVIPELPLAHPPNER

A word on the pEC50: it is −log10 of the EC50, conventionally taken in molar units. Higher therefore signals a low EC50. The compound `COc1nc(-c2cccc(-c3cccc(-c4cc5c(c(OC)n4)C(N4CCC[C@H](C(=O)O)C4)CC5)c3Cl)c2Cl)cnc1CN1CC(O)C1` (stereo partly drawn) [Compound F-2] gave a pEC50 at PD-1/PD-L1 interaction of 7.00 to 8.00. Besides, the pIC50 on PDL1/PD1 was at least 8.00. Take `CCOC(=O)C1CN([C@H]2CCc3cc(-c4cccc(-c5cccc(-c6cnc(CN7CC(O)C7)c(OC)n6)c5Cl)c4Cl)nc(OC)c32)C1` [Compound G-1]: the pEC50 at PD-1/PD-L1 interaction is 7.00 to 8.00.

On PD-1/PD-L1 interaction, `COc1nc(-c2cccc(-c3cccc(-c4cc5c(c(OC)n4)[C@@H](N4CC6(CCC(=O)N6)C4)CC5)c3Cl)c2Cl)cnc1CN1CC2(C1)CN(C(C)=O)C2` (single isomer, unassigned) [Compound D-14] showed a pEC50 of at least 8.00. The pIC50 on PDL1/PD1 is at least 8.00. `COc1nc(-c2cccc(-c3cccc(-c4cc5c(c(OC)n4)[C@@H](NC[C@@H]4CCC(=O)N4)CC5)c3Cl)c2Cl)cnc1CN1CC2(CCCO2)C1` [Compound D-3] gave a pEC50 on PD-1/PD-L1 interaction of at least 8.00. Also, the pIC50 on PDL1/PD1 was at least 8.00. With `CCOC(=O)C1CN([C@H]2CCc3cc(-c4cccc(-c5cccc(-c6cnc(CN7CC(OC)C7)c(OC)n6)c5Cl)c4Cl)nc(OC)c32)C1` (single isomer, unassigned) [Compound G-5], at PD-1/PD-L1 interaction, the pEC50 is 7.00 to 8.00. Further, the pIC50 at PDL1/PD1 was at least 8.00.

As a reminder, the Emax is the size of the effect at its maximum, as opposed to the concentration needed. For `COc1cc(-c2cccc(-c3cccc(-c4cnc(CN5CC6(CCC(=O)N6)C5)c(OC)n4)c3Cl)c2Cl)cc2c1[C@H](N1CC(C(=O)O)C1)CC2` (single isomer, unassigned) [Compound B-4], on PD-1/PD-L1 interaction, the Emax was determined as 65% and the pEC50 is 5.00 to 6.00. For the same compound, the pIC50 at PDL1/PD1 is at least 8.00. Consider `COc1nc(-c2cccc(-c3cccc(-c4cc5c(c(OC)n4)[C@@H](N4CC6(CN(C(C)=O)C6)C4)CC5)c3Cl)c2Cl)cnc1CNC[C@@H]1CCC(=O)N1` (single isomer, unassigned) [Compound D-16], for which, on PDL1/PD1, the pIC50 was at least 8.00.

`CCOC(=O)C1CN([C@H]2CCc3cc(-c4cccc(-c5cccc(-c6cnc(CN7C[C@@H](O)[C@@H]7C)c(OC)n6)c5Cl)c4Cl)nc(OC)c32)C1` (single isomer, unassigned) [Compound G-3] showed a pEC50 at PD-1/PD-L1 interaction below 5.00.

`COc1nc(-c2cccc(-c3cccc(-c4cc5c(c(OC)n4)[C@H](N4CC6(CN(C(C)=O)C6)C4)CC5)c3Cl)c2Cl)cnc1CNC[C@@H]1CCC(=O)N1` (single isomer, unassigned) [Compound D-17]: the pEC50 on PD-1/PD-L1 interaction is 7.00 to 8.00. On PDL1/PD1, the pIC50 is at least 8.00. At PD-1/PD-L1 interaction, `CCOC(=O)CN1CCc2c(cc(-c3cccc(-c4cccc(-c5cnc(CN6CC(O)(C(F)(F)F)C6)c(OC)n5)c4Cl)c3Cl)nc2OC)C1` [Compound I-3] gave a pEC50 of 5.00 to 6.00. `COc1nc(-c2cccc(-c3cccc(-c4cc5c(c(OC)n4)[C@H](N4CC(O)C4)CC5)c3Cl)c2Cl)cnc1CN1CC2(CCC(=O)N2)C1` (single isomer, unassigned) [Compound C-6]: the pEC50 at PD-1/PD-L1 interaction is 6.00 to 7.00. Besides, at PDL1/PD1, the pIC50 is at least 8.00.

Turning to `CCOC(=O)CN[C@@H]1CCc2cc(-c3cccc(-c4cccc(-c5cnc(CN6CC7(CCC(=O)N7)C6)c(OC)n5)c4Cl)c3Cl)cc(OC)c21` (single isomer, unassigned) [Compound A-2], at PD-1/PD-L1 interaction, the Emax was 85% and the pEC50 was 6.00 to 7.00. Also, the pIC50 at PDL1/PD1 is at least 8.00. With `COc1nc(-c2cccc(-c3cccc(-c4cc5c(c(OC)n4)[C@@H](NC[C@@H]4CCC(=O)N4)CC5)c3Cl)c2Cl)cnc1CN1CC(F)(F)C1` [Compound D-5], the pEC50 at PD-1/PD-L1 interaction is 7.00 to 8.00. At PDL1/PD1, the pIC50 is at least 8.00. As to `COc1nc(-c2cccc(-c3cccc(-c4cc5c(c(OC)n4)CCN(C[C@@H]4CCC(=O)N4)C5)c3Cl)c2Cl)cnc1CN1CC2(CCC(=O)N2)C1` [Compound K-1], the pEC50 at PD-1/PD-L1 interaction is 7.00 to 8.00. Consider `COc1nc(-c2cccc(-c3cccc(-c4cc5c(c(OC)n4)C(N4CCC(F)(F)C4)CC5)c3Cl)c2Cl)cnc1CN1CC2(CCC(=O)N2)C1` (stereo not drawn) [Compound C-9], for which, on PD-1/PD-L1 interaction, the pEC50 is 6.00 to 7.00. Moreover, the pIC50 on PDL1/PD1 is at least 8.00. The matching figures for `COc1nc(-c2cccc(-c3cccc(-c4cc5c(c(OC)n4)[C@@H](NC[C@@H]4CCC(=O)N4)CC5)c3Cl)c2Cl)cnc1CN1CCN(C(C)=O)CC1` [Compound D-6]: at least 8.00 and at least 8.00. For `COc1nc(-c2cccc(-c3cccc(-c4cc5c(c(OC)n4)[C@H](NC[C@@H]4CCC(=O)N4)CC5)c3Cl)c2Cl)cnc1CN1CC(OC)C1` [Compound D-10], the pEC50 at PD-1/PD-L1 interaction is 5.00 to 6.00. On PDL1/PD1, the pIC50 was at least 8.00. As to `COc1nc(-c2cccc(-c3cccc(-c4cc5c(c(OC)n4)[C@@H](NC[C@@H]4CCC(=O)N4)CC5)c3Cl)c2Cl)cnc1CN1CC2(CCC(=O)N2)C1` [Compound C-1], at PD-1/PD-L1 interaction, the pEC50 was at least 8.00. Same read-out and setting: in the case of `COc1nc(-c2cccc(-c3cccc(-c4cc5c(c(OC)n4)[C@@H](NC[C@@H]4CCC(=O)N4)CC5)c3Cl)c2Cl)cc(C)c1CN1CC2(C1)CN(C(C)=O)C2` [Compound E-2] it was at least 8.00; in that of `COc1nc(-c2cccc(-c3cccc(-c4cc5c(c(OC)n4)[C@@H](NC[C@@H]4CCC(=O)N4)CC5)c3Cl)c2Cl)cnc1CN1CC2(C1)CN(C(C)=O)C2` [Compound D-1], at least 8.00; in that of `COc1nc(-c2cccc(-c3cccc(-c4cc5c(c(OC)n4)CCN(CC(=O)O)C5)c3Cl)c2Cl)cnc1CN1CC(O)C1` [Compound J-1], 7.00 to 8.00.

On to `CCOC(=O)C1CN([C@@H]2CCc3cc(-c4cccc(-c5cccc(-c6cnc(CN7CC(O)C7)c(OC)n6)c5Cl)c4Cl)nc(OC)c32)C1` (single isomer, unassigned) [Compound G-2], for which the pIC50 at PDL1/PD1 is at least 8.00. `COCCN1CCc2c(cc(-c3cccc(-c4cccc(-c5cnc(CN6CC7(CCC(=O)N7)C6)c(OC)n5)c4Cl)c3Cl)nc2OC)C1` [Compound K-2] showed a pEC50 at PD-1/PD-L1 interaction of 7.00 to 8.00. `COc1nc(-c2cccc(-c3cccc(-c4cc5c(c(OC)n4)[C@@H](N4CC(C(=O)O)C4)CC5)c3Cl)c2Cl)cnc1CN1CC(O)C1` [Compound H-1] gave a pEC50 on PD-1/PD-L1 interaction of 7.00 to 8.00. On the same count and under the same terms, in the case of `CCOC(=O)C1CN([C@@H]2CCc3cc(-c4cccc(-c5cccc(-c6cnc(CN7C[C@@H](O)[C@@H]7C)c(OC)n6)c5Cl)c4Cl)nc(OC)c32)C1` (single isomer, unassigned) [Compound G-4] it was 5.00 to 6.00.

As for `COc1nc(-c2cccc(-c3cccc(-c4cc5c(c(OC)n4)[C@H](NC[C@@H]4CCC(=O)N4)CO5)c3Cl)c2Cl)cc(C)c1CN1CC2(C1)CN(C(C)=O)C2` (single isomer, unassigned) [Compound E-5], the pIC50 at PDL1/PD1 was at least 8.00. Consider `COc1nc(-c2cccc(-c3cccc(-c4cc5c(c(OCC(C)C)n4)C(NC[C@@H]4CCC(=O)N4)CC5)c3Cl)c2Cl)cnc1CN1CC2(CCC(=O)N2)C1` (stereo partly drawn) [Compound C-13], for which, on PD-1/PD-L1 interaction, the pEC50 is 7.00 to 8.00. The same measure, in the same setting: in the case of `COc1nc(-c2cccc(-c3cccc(-c4cc5c(c(OC)n4)[C@@H](NC[C@@H]4CCC(=O)N4)CC5)c3Cl)c2Cl)ccc1CNC[C@@H]1CCC(=O)N1` [Compound E-1] it was at least 8.00; in that of `COc1nc(-c2cccc(-c3cccc(-c4cc5c(c(OC)n4)C(N4CCC[C@@H](C(=O)O)C4)CC5)c3Cl)c2Cl)cnc1CN1CC(O)C1` (stereo partly drawn) [Compound F-1], 7.00 to 8.00.

Consider `CCOC(=O)CN1CCc2c(cc(-c3cccc(-c4cccc(-c5cnc(CN6CC(O)C6)c(OC)n5)c4Cl)c3Cl)nc2OC)C1` [Compound I-1], for which the pEC50 at PD-1/PD-L1 interaction is 6.00 to 7.00. `COc1nc(-c2cccc(-c3cccc(-c4cc5c(c(OC)n4)[C@H](NC[C@@H]4CCC(=O)N4)CC5)c3Cl)c2Cl)cnc1CN1CCCC1` [Compound D-12]: the pIC50 on PDL1/PD1 was at least 8.00.
